Source: paper PMC5803267, “A small molecule inhibitor of Rheb selectively targets mTORC1 signaling” (Nature Communications, 2018)

Experiments:
[1] = target: T1, Rheb-dependent mTORC1 kinase activity (Homo sapiens, UniProt Q15382); test: Rheb-dependent mTORC1 in vitro kinase assay (Rheb-IVK); format: biochemical; conditions: for inhibition of mTORC1 activity in the Rheb-IVK: result in words
T1 construct: using full-length Rheb and mTORC1 purified from mammalian cells via a Flag-Raptor handle; made in house; host or cells: HA-GST-Rheb: Freestyle 293-F cells transfected with pRK5-HA-GST-Rheb; mTORC1: HEK-293E cells stably expressing FLAG-Raptor
T1 sequence (Q15382 1-181 limits assumed): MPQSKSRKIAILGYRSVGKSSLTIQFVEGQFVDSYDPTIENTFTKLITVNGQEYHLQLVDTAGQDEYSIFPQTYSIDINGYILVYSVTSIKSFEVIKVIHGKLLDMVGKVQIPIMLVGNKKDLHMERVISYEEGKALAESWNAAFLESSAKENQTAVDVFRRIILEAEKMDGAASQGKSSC

[2] = system: T389pS6K1 (mTORC1) in PC3 cells; test: Chronic treatment of PC3 cells, T389pS6K1 Western blot; format: cell-based, human; conditions: PC3, replete, 24 h; NR1 30 µM, rapamycin 100 nM
Experimental: (§1) MCF-7 cells were serum-starved for 16 h and treated with compound for 90 min before cell lysis and Western blot analysis. For insulin-stimulated cells, 100 nM insulin was added 30 min before cell lysis. For EGF-stimulated cells, 100 ng mL^−1 EGF was added 10 min before cell lysis. c Rap1 activity was detected in lysates loaded in vitro with either GDP or GTPγS and treated with NR1 at the indicated concentrations. This was followed by a subsequent pulldown of GST-RalGDS-RBD. Bound Rap1 was detected by Western blot. d Evaluation of NR1 in a LAM patient-derived cell line (TRI102) under replete and serum-starved conditions. For replete conditions, TRI102 cells were treated for 90 min with compound in DMEM + 10% FBS. For serum-starved conditions, TRI102 cells were serum-starved 16 h and then treated for 90 min with compound prior to cell lysis and Western blot analysis. e HEK293 cells co-transfected with the indicated mTOR constructs and HA-GST-S6K1 were starved of amino acids or treated with NR1. To assess mTORC1 activity, an HA IP was performed and Western blots probed for ^T389pS6K1. f Chronic treatment of PC3 cells with NR1 to evaluate the inhibition of mTORC1 (using ^T389pS6K1) versus mTORC2 (using ^S473pAKT). PC3 cells were treated with compound under replete conditions for 24 h prior to cell lysis and Western blot analysis.
(§2) Accordingly, a hallmark of a selective mTORC1 inhibitor such as NR1 would be the lack of mTORC2 inhibition irrespective of the duration of treatment. PC3 cells are sensitive to mTORC2 inhibition with long-term rapamycin treatment. Indeed, upon treatment with rapamycin for 24 h, both ^T389pS6K1 and ^S473pAKT were lowered, indicating inhibitory effects on both mTORC1 and mTORC2, respectively.
(§3) For Western-based signaling assays, cells were treated for either 90 min or 2–24 h as indicated before lysis, normalization, and Western analysis. Cells were lysed in Triton lysis buffer: 1% Triton X-100, 50 mM HEPES pH 7.4, 100 mM NaCl, 2 mM EDTA, 10 mM β-glycerophosphate, 10 mM Na-pyrophosphate, protease inhibitor.

[3] = system: S473pAKT (mTORC2) in PC3 cells; test: Chronic treatment of PC3 cells, S473pAKT Western blot; format: cell-based, human; conditions: PC3, replete, 24 h; NR1 30 µM, rapamycin 100 nM
Experimental: as §1, §2, §3

Row | SMILES | IC50 ([1]; LanthaScreen TR-FRET format, T46p4E-BP1 antibody, read-out: IC50 in the Rheb-IVK) [nM] | inhibition of mTORC1 activity in the Rheb-IVK [1] | T389pS6K1 after 24 h treatment [2] | S473pAKT after 24 h treatment [3]
1 | CCC(=O)N1CCN(c2ccc(-n3c(=O)ccc4cnc5ccc(-c6cnc7ccccc7c6)cc5c43)cc2C(F)(F)F)CC1 [Torin-1] | 2 | inhibited mTORC1 activity | – | –
2 | CO[C@H]1C[C@@H]2CC[C@@H](C)[C@@](O)(O2)C(=O)C(=O)N2CCCC[C@H]2C(=O)O[C@H]([C@H](C)C[C@@H]2CC[C@@H](O)[C@H](OC)C2)CC(=O)[C@H](C)/C=C(\C)[C@@H](O)[C@@H](OC)C(=O)[C@H](C)C[C@H](C)/C=C/C=C/C=C/1C [rapamycin, reference compound] | – | no inhibition | lowered | lowered
